Marks after values point to notes of the source that are not given here.
Tests used:
Calu-6 NSCLC xenograft = experiment: Calu-6 flank xenograft model, tumor growth delay; assay type: in vivo, nu/nu mice
Protocol: Female nu/nu mice (Charles River Labs.) were injected subcutaneously with 0.25 mL of 5×10^6 Calu-6 cells (1:1 with matrigel) on study day 0. The human Calu-6 cells were obtained from a tumor homogenate from previously inoculated donor mice. The cellular implantation site was the right thigh, and all mice were ear tagged. On day 10, tumors were size matched to approximately 170 mm^3 and were placed into the therapy groups outlined in the study design below. The tumors were measured with calipers 2-3 times per week after tumors were palpable. Tumor volume were calculated according to the formula V=L×W^2/2 (V: volume, mm^3; L: length, mm. W: width, mm). The mice were humanely euthanized when the tumor volumes reached a predetermined size. The study design was as follows:
ABT-751 was formulated in 1% HCl, 4% ethanol, and 95% D5W while pemetrexed was formulated in normal saline.
Study group treatments are defined in Table 1.

[1] = tested on: thymidine kinase minus human colon carcinoma xenograft (GC3 TK-); experiment: GC3 TK- flank xenograft model, tumor growth delay; assay type: in vivo, nu/nu mice
Protocol: nu/nu female mice (Charles Rivers Labs) were injected subcutaneously with 0.2 mL of 5×10^6 GC3TK-100c3 cells (1:1 matrigel) on study day 0. […] The cellular implantation site was the right flank, and all mice were ear tagged. Tumors were size matched to 205 mm^3, and animals were placed into the therapy groups shown in the study design below (Table 3). The tumors were measured with calipers 2 times per week after tumors were palpable. The mice were humanely euthanized when the tumor volumes reached a predetermined size. The study design was as follows: [table]

[2] = tested on: thymidine kinase minus human colon carcinoma xenograft (GC3 TK-); settings: Schultz, 1999; cited from earlier work

Row | SMILES | Mean % TGD (tumor growth delay) increase compared to vehicle in time to 1.5 cc tumor (Calu-6 NSCLC xenograft; Group 1: ABT-751 100 mg/kg p.o. Days 10-14 and 20-24, plus pemetrexed vehicle) | Mean % TGD (tumor growth delay) increase compared to vehicle in time to 1.5 cc tumor (Calu-6 NSCLC xenograft; Group 6: ABT-751 100 mg/kg p.o. Days 15-19 and 25-29, plus pemetrexed vehicle) | Median % TGD (tumor growth delay) increase compared to vehicle in time to 0.75 cc tumor ([1]; Group 1: ABT-751 100 mg/kg p.o. Days 38-42 and 48-52, plus pemetrexed vehicle) [%] | Mean % TGD (tumor growth delay) increase compared to vehicle in time to 1.5 cc tumor (Calu-6 NSCLC xenograft; Group 2: pemetrexed 150 mg/kg i.p. Days 10-14 and 20-24, plus ABT-751 vehicle) | Mean % TGD (tumor growth delay) increase compared to vehicle in time to 1.5 cc tumor (Calu-6 NSCLC xenograft; Group 4: pemetrexed 150 mg/kg i.p. Days 15-19 and 25-29, plus ABT-751 vehicle) | Median % TGD (tumor growth delay) increase compared to vehicle in time to 0.75 cc tumor ([1]; Group 2: pemetrexed 150 mg/kg i.p. Days 38-42, plus ABT-751 vehicle) [%] | Median % TGD (tumor growth delay) increase compared to vehicle in time to 0.75 cc tumor ([1]; Group 3: pemetrexed 150 mg/kg i.p. Days 43-47, plus ABT-751 vehicle) | sensitivity in the thymidine kinase-deficient GC3 model [2]
1 | COc1ccc(S(=O)(=O)Nc2cccnc2Nc2ccc(O)cc2)cc1 [ABT-751, N-(2-((4-Hydroxyphenyl)amino)pyridin-3-yl)-4-methoxybenzenesulfonamide] | 18.0***^b % | 18.0*** % | 0.0 | – | – | – | – | –
2 | Nc1nc2[nH]cc(CCc3ccc(C(=O)N[C@@H](CCC(=O)O)C(=O)O)cc3)c2c(=O)[nH]1 [pemetrexed] | – | – | – | 11.1** % | 5.6* % | 14.8 | 30.7*^b % | quite sensitive
